According to ChEMBL document CHEMBL1121427, “Decomposition of pharmacological activity indices into mutually independent components using principal component analysis” (J Med Chem, 1980):

Key:
[1] = tested on: Aspergillus niger; test: The compound was evaluated for activity against Aspergillus niger; type: functional
[2] = tested on: Albifimbria verrucaria; test: The compound was evaluated for activity against Myrothecium verrucaria; type: functional
[3] = tested on: Trichophyton benhamiae; test: The compound was evaluated for activity against Trichophyton mentagrophytes; type: functional, Arthroderma benhamiae
[4] = -Log C was determined by performing the electroshock minimum test; type: ADME; design: unit not given here
[5] = -Log C was determined by performing the pentylenetetrazole test; type: ADME; design: unit not given here
[6] = -Log C was determined by performing the maximum electroshock test; type: ADME; design: unit not given here
[7] = -Log C was determined by performing the foot shock test; type: ADME; design: unit not given here
[8] = -Log C was determined by performing the incl screen test; type: ADME; design: unit not given here

Compound | -Log C [1] [mM l-1] | -Log C [2] [mM l-1] | -Log C [3] [mM l-1] | -Log C [4] | -Log C [5] | -Log C [6] | -Log C [7] | -Log C [8]
Oc1c(F)ccc2cccnc12 | 1.32 | 1.75 | 1.92 | – | – | – | – | –
Cc1ccccc1C1=NCC(=O)Nc2ccc(Cl)cc21 | – | – | – | 0.19 | 1.57 | 1.13 | 0.45 | 0.28
CCN1C(=O)CN=C(c2ccccc2)c2cc(Cl)ccc21 | – | – | – | 0.3 | 1.87 | 1.56 | 1.17 | 0.6
CN(C)c1ccc2c(c1)C(c1ccccc1)=NCC(=O)N2 | – | – | – | 0.38 | 0.82 | 0.12 | 0.45 | 0.25
O=C1CN=C(c2ccccc2)c2cc(C(F)(F)F)ccc2N1 [RO-052904] | – | – | – | 1.16 | 2.48 | 1.78 | 1.48 | 1.48
